The record followed here is patent US20090117083A1, “IMMUNOMODULATORY ALKALOIDS” (M N L PHARMA LIMITED, priority 2004, published 2009).

One may read the inhibition as the drop in the measured response relative to a control, in per cent. What is called IC50 is the concentration at which inhibition is half-maximal. A lower IC50 goes with higher potency. The Ki is the dissociation constant of the complex between target and ligand, obtained from inhibition or displacement. Low readings indicate higher affinity, high ones lower affinity.

For one assay, the system named is Naringinase. Description: Glycosidase inhibition: Naringinase. It is filed as biochemical, Penecillium decumbens. To be noted: 1 mg/ml. As for the experimental part:
(§1) All enzymes were purchased from Sigma, as were the appropriate p-nitrophenyl substrates. Assays were carried out in microtitre plates. Enzymes were assayed in 0.1M citric acid/0.2M di-sodium hydrogen phosphate (McIlvaine) buffers at the optimum pH for the enzyme. All assays were carried out at 20° C. For screening assays the incubation assay consisted of 10 μl of enzyme solution, 10 μl of inhibitor solution (made up in water) and 50 μl of the appropriate 5 mM p-nitrophenyl substrate (3.57 mM final conc.) made up in McIlvaine buffer at the optimum pH for the enzyme.
(§2) The reactions were stopped with 0.4M glycine (pH 10.4) during the exponential phase of the reaction, which was determined at the beginning of the assay using blanks with water, which were incubated for a range of time periods to measure the reaction rate using 5 mM substrate solution. Endpoint absorbances were read at 405 nm with a Biorad microtitre plate reader (Benchmark). Water was substituted for the inhibitors in the blanks.

A further assay has as its system β-D-glucosidase. Description: Glycosidase inhibition: β-D-glucosidase, almond. It counts as biochemical, Almonds (Prunus sp.). The conditions noted are these: for % inhibition, glucosidase: 1 mg/ml. As for the experimental part: as §1, §2
Another assay relates to dendritic cells. To be noted: treatment alone.
Another assay has as its target T1, α-D-mannosidase (Canavalia ensiformis, UniProt C0HJB3).
T1 construct: purchased Sigma
Kind of assay: Glycosidase inhibition: α-D-mannosidase. The conditions noted are these: read-out: % inhibition, mannosidase. It is filed as biochemical, Jack beans (Canavalia ensiformis). As for the experimental part: All enzymes were purchased from Sigma, as were the appropriate p-nitrophenyl substrates. Assays were carried out in microtitre plates. Enzymes were assayed in 0.1M citric acid/0.2M di-sodium hydrogen phosphate (McIlvaine) buffers at the optimum pH for the enzyme. All assays were carried out at 20° C.
Endpoint absorbances were read at 405 nm with a Biorad microtitre plate reader (Benchmark). Water was substituted for the inhibitors in the blanks.

The test system of assay [1] is Influenza vaccine-specific IgG, IgG1 and IgG2a. On the set-up: species or system Balb/c mice. To be noted: mouse, in vivo.
Assay [2] concerns α-D-glucosidase. Description: Glycosidase inhibition: α-D-glucosidase, Bacillus. It counts as biochemical, Bacillus stearothermophilus. To be noted: 1 mg/ml. As for the experimental part: as §1, §2
The target in another assay is T2, α-L-fucosidase (Bos taurus, UniProt Q2KIM0).
T2 construct: purchased Sigma
T2 sequence (Q2KIM0 23-468): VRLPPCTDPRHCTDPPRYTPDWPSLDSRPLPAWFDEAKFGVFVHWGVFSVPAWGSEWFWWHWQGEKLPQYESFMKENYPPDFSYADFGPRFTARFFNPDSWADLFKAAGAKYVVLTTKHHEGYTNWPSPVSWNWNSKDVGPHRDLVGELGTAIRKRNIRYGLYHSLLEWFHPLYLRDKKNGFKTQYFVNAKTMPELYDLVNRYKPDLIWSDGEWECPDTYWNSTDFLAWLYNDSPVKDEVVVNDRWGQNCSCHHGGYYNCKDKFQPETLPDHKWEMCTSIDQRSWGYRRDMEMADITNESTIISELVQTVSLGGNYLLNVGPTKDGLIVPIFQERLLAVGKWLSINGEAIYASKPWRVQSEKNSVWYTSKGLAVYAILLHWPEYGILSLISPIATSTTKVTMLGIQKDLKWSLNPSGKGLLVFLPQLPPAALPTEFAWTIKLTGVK
Description: Glycosidase inhibition: α-L-fucosidase. It is filed as biochemical, Bovine. The conditions noted are these: 1 mg/ml; read-out: % inhibition, fucosidase. As for the experimental part:
as §1, §2

In assay [3] the target is T3, α-D-glucosidase (Oryza sativa subsp. japonica, UniProt Q653V7).
T3 construct: purchased Sigma
T3 sequence (Q653V7 34-885): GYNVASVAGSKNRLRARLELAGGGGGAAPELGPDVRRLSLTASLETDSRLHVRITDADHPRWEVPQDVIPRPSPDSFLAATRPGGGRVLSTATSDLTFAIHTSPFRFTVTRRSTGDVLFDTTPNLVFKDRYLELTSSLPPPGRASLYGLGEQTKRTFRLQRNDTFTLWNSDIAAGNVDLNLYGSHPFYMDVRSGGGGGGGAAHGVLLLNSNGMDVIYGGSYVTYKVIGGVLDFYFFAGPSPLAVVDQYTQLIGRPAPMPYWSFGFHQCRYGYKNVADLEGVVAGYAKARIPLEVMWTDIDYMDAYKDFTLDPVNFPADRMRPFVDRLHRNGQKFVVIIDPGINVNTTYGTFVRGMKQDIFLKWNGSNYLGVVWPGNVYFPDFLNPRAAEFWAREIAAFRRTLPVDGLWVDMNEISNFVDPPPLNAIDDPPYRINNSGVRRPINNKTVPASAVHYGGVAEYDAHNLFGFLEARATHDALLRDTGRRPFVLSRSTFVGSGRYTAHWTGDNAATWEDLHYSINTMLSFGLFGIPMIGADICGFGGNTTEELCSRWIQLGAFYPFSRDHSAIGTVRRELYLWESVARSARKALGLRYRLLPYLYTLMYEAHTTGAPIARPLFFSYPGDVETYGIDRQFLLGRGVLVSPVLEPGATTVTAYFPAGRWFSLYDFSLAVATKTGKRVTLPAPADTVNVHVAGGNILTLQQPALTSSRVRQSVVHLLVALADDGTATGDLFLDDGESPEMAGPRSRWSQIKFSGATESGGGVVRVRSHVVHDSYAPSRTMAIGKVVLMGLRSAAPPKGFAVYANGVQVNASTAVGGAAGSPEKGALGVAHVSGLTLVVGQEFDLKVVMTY
Description: Glycosidase inhibition: α-D-glucosidase, rice. It is filed as biochemical, rice (Oryza sativa). The conditions noted are these: 1 mg/ml; read-out: % inhibition, gluc (rice). As for the experimental part: as §1, §2

Assay [4] has as its system N-acetyl-β-D-glucosaminidase. Description: Glycosidase inhibition: N-acetyl-β-D-glucosaminidase. It is filed as biochemical, Bovine. The conditions noted are these: 1 mg/ml. As for the experimental part:
as §1, §2

The test system of assay [5] is glycosidase enzymes of Table 4.1. Kind of assay: Glycosidase inhibition screening, whole enzyme panel. It counts as biochemical. To be noted: 1 mg/ml. As for the experimental part:
as §1, §2

The subject of assay [6] is spleen cells from Leishmania major infected BALB/c mice. Kind of assay: Th1:Th2 response in non-healing leishmaniasis model, spleen cells ex vivo. It is filed as cell-based. To be noted: for IFN-γ: Table 10.1.
Another assay deals with spleen cells. Kind of assay: Cytokine modulation in spleen cells (IFN-γ). It counts as cell-based, BALB/c mice. As for the experimental part:
BALB/c male and female mice bred and maintained at the University of Strathclyde under conventional conditions were used at varying age.
Cells suspensions were prepared by using the end of a syringe and grinding the spleen through a wire mesh. The cell suspension was then centrifuged at 1000 rpm for 5 minutes. To remove the erythrocytes, the cell pellet was resuspended in Boyle's solution (Tris 0.17M & Ammonium Chloride 0.16M) and centrifuged again for 5 minutes. The pellet was then washed in medium a further two times, then resuspended in 3 mls medium. A cell count was then carried out.
All spleen cell experiments were carried out in 96-well tissue culture plates. […] Unstimulated wells contained 100 μl of cells and 100 μl of medium. The stimulated wells contained 100 μl of cells plus 50 μl of LPS at 1 μg/ml or 50 μl anti-CD3 at 0.5 μg/ml and 50 μl of medium. The remaining wells contained 100 μl cells, 5 μl of MNLP compound and either 50 μl of anti-CD3 or medium alone.
The appropriate Mabs and standards were used according to the protocol described for IL-12 (described in Example 1, above).

Assay [7] concerns the target rabbit gut mucosa α-D-glucosidase. Kind of assay: Inhibition of rabbit gut mucosa α-D-glucosidase. It counts as biochemical.
Assay [8] relates to Na^+-dependent D-glucose uptake. Kind of assay: Na+-dependent D-glucose uptake into intestinal brush border membrane vesicles. It counts as biochemical, ovine.
The target in assay [9] is T4, rabbit small intestine lactase (Oryctolagus cuniculus, UniProt P09849).
T4 construct: from tissue; host or cells: rabbit small intestine
T4 sequence (P09849 867-1926): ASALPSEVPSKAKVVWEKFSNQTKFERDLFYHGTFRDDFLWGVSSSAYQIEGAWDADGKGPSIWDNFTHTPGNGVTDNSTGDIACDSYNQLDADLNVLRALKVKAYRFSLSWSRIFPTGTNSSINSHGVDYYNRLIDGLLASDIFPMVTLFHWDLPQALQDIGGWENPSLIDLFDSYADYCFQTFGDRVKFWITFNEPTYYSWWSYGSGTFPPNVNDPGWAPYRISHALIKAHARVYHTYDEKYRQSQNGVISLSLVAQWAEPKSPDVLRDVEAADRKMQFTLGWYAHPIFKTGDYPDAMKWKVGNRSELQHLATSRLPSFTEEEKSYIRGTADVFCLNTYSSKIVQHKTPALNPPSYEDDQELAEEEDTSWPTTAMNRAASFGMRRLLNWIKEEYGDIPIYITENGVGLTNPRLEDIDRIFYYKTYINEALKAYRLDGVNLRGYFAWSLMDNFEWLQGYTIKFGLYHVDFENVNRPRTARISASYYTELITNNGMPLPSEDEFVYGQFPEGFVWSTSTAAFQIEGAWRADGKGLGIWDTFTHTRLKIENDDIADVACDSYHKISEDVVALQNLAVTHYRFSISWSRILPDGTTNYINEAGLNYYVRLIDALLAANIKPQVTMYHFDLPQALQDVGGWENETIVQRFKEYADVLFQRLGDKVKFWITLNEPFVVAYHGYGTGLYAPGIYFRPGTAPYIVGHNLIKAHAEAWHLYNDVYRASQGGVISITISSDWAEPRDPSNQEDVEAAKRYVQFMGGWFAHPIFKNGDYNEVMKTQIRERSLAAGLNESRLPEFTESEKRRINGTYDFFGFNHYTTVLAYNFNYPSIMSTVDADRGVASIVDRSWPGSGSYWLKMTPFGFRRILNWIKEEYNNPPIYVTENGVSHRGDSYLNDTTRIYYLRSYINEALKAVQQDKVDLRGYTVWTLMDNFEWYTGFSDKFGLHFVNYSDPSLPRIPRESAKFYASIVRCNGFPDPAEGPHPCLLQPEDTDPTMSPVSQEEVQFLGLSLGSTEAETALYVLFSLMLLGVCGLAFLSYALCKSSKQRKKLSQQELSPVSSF
Description: Inhibition of rabbit small intestine lactase. It is filed as biochemical.

Assay [10] deals with T5, α-D-glucosidase (Saccharomyces cerevisiae, UniProt P53341).
T5 construct: purchased Sigma
T5 sequence (P53341 whole entry): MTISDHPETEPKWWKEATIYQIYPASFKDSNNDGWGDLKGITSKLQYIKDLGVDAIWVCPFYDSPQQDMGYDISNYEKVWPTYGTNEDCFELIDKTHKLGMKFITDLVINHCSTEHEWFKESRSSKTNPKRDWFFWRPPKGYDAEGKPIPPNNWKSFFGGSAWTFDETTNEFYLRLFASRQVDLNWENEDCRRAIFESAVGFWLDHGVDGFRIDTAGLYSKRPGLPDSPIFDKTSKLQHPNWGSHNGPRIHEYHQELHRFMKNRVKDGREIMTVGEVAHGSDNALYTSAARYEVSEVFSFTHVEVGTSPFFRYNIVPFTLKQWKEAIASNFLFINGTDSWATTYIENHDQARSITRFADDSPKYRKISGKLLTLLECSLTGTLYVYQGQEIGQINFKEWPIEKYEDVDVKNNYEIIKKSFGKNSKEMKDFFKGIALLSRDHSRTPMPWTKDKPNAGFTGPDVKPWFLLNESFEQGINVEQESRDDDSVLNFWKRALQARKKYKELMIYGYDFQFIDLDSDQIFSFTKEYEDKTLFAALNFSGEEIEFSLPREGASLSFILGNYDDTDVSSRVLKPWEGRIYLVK
Description: Glycosidase inhibition (p-nitrophenyl substrate): α-D-glucosidase, yeast. It is filed as biochemical, Saccharomyces cerevisiae (Baker's yeast). As for the experimental part:
as §1, §2

In a further assay the test system is β-D-galactosidase. Description: Glycosidase inhibition: β-D-galactosidase. It counts as biochemical, Bovine. The conditions noted are these: 1 mg/ml; second galactosidase line. As for the experimental part: as §1, §2
Assay [11] concerns the target T6, rabbit small intestine trehalase (Oryctolagus cuniculus, UniProt P19813).
T6 construct: from tissue; host or cells: rabbit small intestine
Description: Inhibition of rabbit small intestine trehalase. It is filed as biochemical.

Assay [12] concerns the target T7, rabbit small intestine sucrase (Oryctolagus cuniculus, UniProt P07768).
T7 construct: from tissue; host or cells: rabbit small intestine
Description: Inhibition of rabbit small intestine sucrase. It is filed as biochemical. The conditions noted are these: 700 μM.

The next assay deals with T8, α-D-galactosidase (Coffea arabica, UniProt Q42656).
T8 construct: purchased Sigma
T8 sequence (Q42656 16-378): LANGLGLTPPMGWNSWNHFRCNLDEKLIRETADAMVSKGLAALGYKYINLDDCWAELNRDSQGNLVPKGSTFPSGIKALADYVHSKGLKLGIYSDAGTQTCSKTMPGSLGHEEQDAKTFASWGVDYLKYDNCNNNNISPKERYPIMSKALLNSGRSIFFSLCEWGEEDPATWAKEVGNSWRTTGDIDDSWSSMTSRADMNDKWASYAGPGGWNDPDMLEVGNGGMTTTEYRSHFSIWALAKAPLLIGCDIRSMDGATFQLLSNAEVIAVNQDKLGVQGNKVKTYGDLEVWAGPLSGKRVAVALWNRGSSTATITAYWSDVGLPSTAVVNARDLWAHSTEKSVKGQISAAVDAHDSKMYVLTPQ
Description: Glycosidase inhibition: α-D-galactosidase. It counts as biochemical, Green coffee beans (Coffea sp.). To be noted: 1 mg/ml; first galactosidase line; read-out: % inhibition, galactosidase. As for the experimental part: as §1, §2

The structures appear in SMILES notation.

T1 sequence (C0HJB3 whole entry): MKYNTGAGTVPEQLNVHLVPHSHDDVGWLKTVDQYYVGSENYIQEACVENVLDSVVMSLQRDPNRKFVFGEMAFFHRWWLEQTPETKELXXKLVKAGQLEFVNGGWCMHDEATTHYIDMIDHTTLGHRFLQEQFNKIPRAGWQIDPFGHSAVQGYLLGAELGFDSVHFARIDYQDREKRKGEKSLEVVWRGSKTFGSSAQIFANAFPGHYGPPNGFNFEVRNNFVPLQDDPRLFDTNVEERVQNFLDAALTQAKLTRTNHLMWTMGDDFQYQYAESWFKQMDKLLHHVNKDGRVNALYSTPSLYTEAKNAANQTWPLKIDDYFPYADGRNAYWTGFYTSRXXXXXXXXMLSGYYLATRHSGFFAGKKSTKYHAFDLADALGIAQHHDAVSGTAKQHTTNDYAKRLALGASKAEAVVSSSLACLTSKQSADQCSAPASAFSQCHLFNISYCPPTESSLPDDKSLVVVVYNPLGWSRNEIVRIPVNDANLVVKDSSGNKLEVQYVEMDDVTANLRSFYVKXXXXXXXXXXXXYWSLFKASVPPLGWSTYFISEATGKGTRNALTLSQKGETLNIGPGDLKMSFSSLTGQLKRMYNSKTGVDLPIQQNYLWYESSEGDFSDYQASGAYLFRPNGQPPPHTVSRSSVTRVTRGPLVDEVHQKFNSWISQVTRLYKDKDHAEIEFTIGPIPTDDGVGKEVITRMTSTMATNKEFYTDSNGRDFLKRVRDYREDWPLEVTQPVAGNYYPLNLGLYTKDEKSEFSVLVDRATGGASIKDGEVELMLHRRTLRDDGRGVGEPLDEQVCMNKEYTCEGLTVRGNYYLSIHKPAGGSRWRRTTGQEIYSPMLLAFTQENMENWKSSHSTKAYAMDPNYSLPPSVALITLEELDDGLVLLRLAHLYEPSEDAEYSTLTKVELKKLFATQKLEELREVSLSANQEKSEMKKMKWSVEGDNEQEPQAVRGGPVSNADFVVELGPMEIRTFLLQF
T6 sequence (P19813 20-555): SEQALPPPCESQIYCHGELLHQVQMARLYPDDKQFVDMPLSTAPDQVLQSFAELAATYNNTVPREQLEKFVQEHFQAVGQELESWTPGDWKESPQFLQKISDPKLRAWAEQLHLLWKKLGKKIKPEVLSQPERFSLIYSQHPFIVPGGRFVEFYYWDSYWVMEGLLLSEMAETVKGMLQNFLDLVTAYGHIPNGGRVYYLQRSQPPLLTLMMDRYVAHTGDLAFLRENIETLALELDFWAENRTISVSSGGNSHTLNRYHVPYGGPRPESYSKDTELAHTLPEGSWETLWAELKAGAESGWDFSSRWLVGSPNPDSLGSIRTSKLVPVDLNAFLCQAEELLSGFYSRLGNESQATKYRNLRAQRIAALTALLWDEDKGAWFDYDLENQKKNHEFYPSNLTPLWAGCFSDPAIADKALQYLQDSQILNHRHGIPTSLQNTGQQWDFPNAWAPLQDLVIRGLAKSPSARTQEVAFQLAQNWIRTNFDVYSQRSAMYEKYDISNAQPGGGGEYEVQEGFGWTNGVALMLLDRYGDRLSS

In the case of `OC[C@H]1[C@@H](O)[C@H](O)[C@H]2[C@@H](O)[C@@H](O)CN21` [3,7-diepi-casuarine (10), (1R,2R,3S,6S,7R,7aR)-3-(hydroxymethyl)-1,2,6,7-tetrahydroxypyrolizidine], the “% inhibition, Naringinase” value in the assay on Naringinase is reported as 6%. Besides, in the assay with β-D-glucosidase, the “% inhibition, glucosidase” value is listed as 5%. The IL-2 with dendritic cells is reported as 0.00 units/ml. The inhibition at 1000 µg/mL on α-D-mannosidase is 8%; on α-L-fucosidase it was 5%; on α-D-glucosidase [3], 7%. The “influenza-specific IgG1 response versus vaccine alone” value in [1] is given as “statistically significant increased”. The “influenza-specific IgG2a responses versus vaccine alone” value in assay [1] is “No significant differences”. Further, the “influenza-specific IgGtotal response versus vaccine alone” value in [1] is “statistically significant increased”. Moreover, the “% inhibition, gluc (Bacillus)” value in the assay with α-D-glucosidase [2] was −7%. Besides, the “% inhibition, N-acetyl-β-gluc” value in assay [4] was −6%. The “inhibition of the enzymes tested” value in assay [5] is recorded as “do not significantly inhibit any of the enzymes tested”. The IFN-γ in assay [6] (+ L. major Ag) was 5.5 ng/mL; in [6] (treatment alone), about 0.5 ng/mL; with spleen cells (Table 3.1, + αCD3), 13.50 ng/mL; in the assay with spleen cells (Table 3.1, treatment alone) it was 0.22 ng/mL. The IL-5 in [6] (Table 10.2, + αCD3) came to 150 pg/mL. The “Th2-skewed immune response profile” value in [6] (ex vivo) is recorded as “clearly reversed”.
On to `O[C@H]1[C@H](O)[C@@H](O)CN2CC[C@H](O)[C@H]12` [Castanospermine (20), Castanospermine, reference compound], for which the “% inhibition, Naringinase” value with Naringinase worked out at 39%. The compound further yielded an IC50 in assay [7] of 8 µM. In addition, the Ki at β-D-glucosidase was 9 µM. Moreover, in the assay with β-D-glucosidase, the “% inhibition, glucosidase” value turned out to be 88%. In [8] (initial rate, competition with labelled D-glucose, control 240), the Glucose uptake is 225 pmol/s/mg. Also, in assay [8] (versus control), the “glucose transport, effect” value is listed as “slightly inhibited”. For the same compound, the inhibition at 700 µM in [9] and in assay [11] was over 50% each time. Besides, at α-D-glucosidase [10] (800 μM), the “inhibition of yeast α-D-glucosidase” value is on record as “not being inhibitory”. For the same compound, the inhibition at 1000 µg/mL at α-D-glucosidase [10] (1 mg/ml, read-out: % inhibition, gluc (yeast)) is -8%; on α-D-mannosidase, 9%; on α-D-galactosidase it was -3%; on α-L-fucosidase it was 3%; on α-D-glucosidase [3], 77%. Also, the “% inhibition, galactosidase” value in the assay on β-D-galactosidase was 16%. Besides, in the assay with α-D-glucosidase [2], the “% inhibition, gluc (Bacillus)” value is 6%. Also, in [12], the “inhibition of rabbit small intestine sucrase” value was “inhibited”. Moreover, in assay [4], the “% inhibition, N-acetyl-β-gluc” value is 16%. Also, the “IFN-γ secretion/production in splenocytes” value in the assay with spleen cells was “inhibits”. The IFN-γ with spleen cells (Table 3.2, + αCD3) was 9.0 ng/mL; with spleen cells (Table 3.2, treatment alone), under 1.0 ng/mL.
